Source: patent US12441762B2, “Hepatitis c virus NS3/4A protease inhibitors” (priority 2019, dated 2025)

Assays:
Experiment in all cases: biochemical
[1] = target: T1, wild-type HCV NS3/4A protease (GT1a) (Hepatitis C virus genotype 1a, UniProt P27958, C1185S); assay type: biochemical
T1 construct: His-tag (cleaved yes); made in house; host or cells: Escherichia coli BL21(DE3), PET28a vector
How it was run: (§1)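 Inhibitors pre-incubated 1 h at room temperature with 2 nM NS3/4A protease (GT1a C159S or D168A) in 50 mM Tris, 5% glycerol, 10 mM DTT, 0.6 mM LDAO, 4% DMSO, pH 7.5. Km from global Michaelis-Menten fit of inner-filter-corrected initial velocities; three independent data sets per inhibitor and construct.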

[2] = target: T2, HCV NS3/4A protease D168A variant (Hepatitis C virus genotype 1a, UniProt P27958, C1185S/D1194A); assay type: biochemical
T2 construct: His-tag (cleaved yes); made in house; host or cells: Escherichia coli BL21(DE3), PET28a vector
T2 sequence (P27958 1027-1208 C1185S/D1194A): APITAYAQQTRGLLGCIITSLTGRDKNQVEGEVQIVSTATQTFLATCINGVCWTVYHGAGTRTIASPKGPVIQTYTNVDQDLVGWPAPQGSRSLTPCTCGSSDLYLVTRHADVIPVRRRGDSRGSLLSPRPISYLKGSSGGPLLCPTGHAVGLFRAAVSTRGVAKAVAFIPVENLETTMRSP
How it was run: as §1

HCV NS3/4A protease GT3 = HCV NS3/4A protease GT3 (Hepatitis C virus genotype 3a, UniProt Q81495)
HCV NS3/4A protease GT3, sequence (Q81495 1033-1214): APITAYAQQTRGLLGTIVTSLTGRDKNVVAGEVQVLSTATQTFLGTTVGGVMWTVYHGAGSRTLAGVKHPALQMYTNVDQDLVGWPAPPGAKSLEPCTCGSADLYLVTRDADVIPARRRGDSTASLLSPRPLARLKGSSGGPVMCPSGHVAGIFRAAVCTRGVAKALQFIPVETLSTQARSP
HCV NS3/4A protease GT3, sequence (Q81495 1664-1717): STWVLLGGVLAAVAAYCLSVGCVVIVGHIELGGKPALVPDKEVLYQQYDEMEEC

[3] = tested on: HCV NS3/4A protease D168A variant; assay type: biochemical, Hepatitis C virus; conditions: Table S1, value in parentheses
How it was run: as §1

T1 sequence (P27958 1027-1208 C1185S): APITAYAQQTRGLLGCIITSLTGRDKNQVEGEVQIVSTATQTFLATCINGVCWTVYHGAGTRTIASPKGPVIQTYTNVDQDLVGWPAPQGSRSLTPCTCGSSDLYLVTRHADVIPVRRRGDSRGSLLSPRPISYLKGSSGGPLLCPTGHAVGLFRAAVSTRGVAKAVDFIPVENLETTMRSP

SMILES	Ki [1] [µM]	Ki [2] [µM]	Ki (HCV NS3/4A protease GT3) [µM]	Fold Change of D168A Ki with respect to GT1a wild-type [3]	fold increase in potency towards WT compared to the parent compound ([1]; compared to parent compound) [fold]
COc1ccc2nc(C(F)(F)F)c(O[C@@H]3C[C@H]4C(=O)N[C@]5(C(=O)NS(=O)(=O)C6(C)CC6)C[C@H]5/C=C\CCCCC[C@H](NC(=O)OC5(C(F)(F)F)CCC5)C(=O)N4C3)nc2c1 [NR02-59, 1-(Trifluoromethyl)cyclobutyl ((2R,6S,13aS,14aR,16aS,Z)-2-((7-methoxy-3-(trifluoromethyl)quinoxalin-2-yl)oxy)-14a-(((1-methylcyclopropyl)sulfonyl)carbamoyl)-5,16-dioxo-1,2,3,5,6,7,8,9,10,11,13a,14,14a,15,16,16a-hexadecahydrocyclopropa[e]pyrrolo[1,2-a][1,4]diazacyclopentadecin-6-yl)carbamate]	0.002 ± 0.0002	0.0122 ± 0.0011	0.133 ± 0.025		
COc1ccc2nc(C(F)(F)F)c(O[C@@H]3C[C@H]4C(=O)N[C@]5(C(=O)NS(=O)(=O)C6(C)CC6)C[C@H]5/C=C\CCCCC[C@H](NC(=O)OC5(C(F)(F)F)CCCC5)C(=O)N4C3)nc2c1 [NR04-01, 1-(Trifluoromethyl)cyclopentyl ((2R,6S,13aS,14aR,16aS,Z)-2-((7-methoxy-3-(trifluoromethyl)quinoxalin-2-yl)oxy)-14a-(((1-methylcyclopropyl)sulfonyl)carbamoyl)-5,16-dioxo-1,2,3,5,6,7,8,9,10,11,13a,14,14a,15,16,16a-hexadecahydrocyclopropa[e]pyrrolo[1,2-a][1,4]diazacyclopentadecin-6-yl)carbamate]	0.00566 ± 0.0005	0.0204 ± 0.0009	0.414 ± 0.023		
COc1ccc2nc(C)c(O[C@@H]3C[C@H]4C(=O)N[C@]5(C(=O)NS(=O)(=O)C6(C)CC6)C[C@H]5/C=C\CCCCC[C@H](NC(=O)OC5(C(F)(F)F)CCCC5)C(=O)N4C3)nc2c1 [NR02-60, 1-(Trifluoromethyl)cyclopentyl ((2R,6S,13aS,14aR,16aS,Z)-2-((7-methoxy-3-methylquinoxalin-2-yl)oxy)-14a-(((1-methylcyclopropyl)sulfonyl)carbamoyl)-5,16-dioxo-1,2,3,5,6,7,8,9,10,11,13a,14,14a,15,16,16a-hexadecahydrocyclopropa[e]pyrrolo [1,2-a][1,4]diazacyclopentadecin-6-yl)carbamate]	0.0013 ± 0.0002	0.0081 ± 0.0015	0.104 ± 0.007		
COc1ccc2nc(C(F)(F)F)c(O[C@@H]3C[C@H]4C(=O)N[C@]5(C(=O)NS(=O)(=O)C6(C)CC6)C[C@H]5/C=C\CCCCC[C@H](NC(=O)O[C@@H](C)C5CC5)C(=O)N4C3)nc2c1 [NR02-33, (S)-1-Cyclopropylethyl ((2R,6S,13aS,14aR,16aS,Z)-2-((7-methoxy-3-(trifluoromethyl)quinoxalin-2-yl)oxy)-14a-(((1-methylcyclopropyl)sulfonyl)carbamoyl)-5,16-dioxo-1,2,3,5,6,7,8,9,10,11,13a,14,14a,15,16,16a-hexadecahydrocyclopropa[e]pyrrolo[1,2-a][1,4]diazacyclopentadecin-6-yl)carbamate]	0.0104 ± 0.00094	0.0544 ± 0.0037	0.412 ± 0.021		
COc1ccc2nc(C(F)(F)F)c(O[C@@H]3C[C@H]4C(=O)N[C@]5(C(=O)NS(=O)(=O)C6(C)CC6)C[C@H]5/C=C\CCCCC[C@H](NC(=O)OC5(C)CCC5)C(=O)N4C3)nc2c1 [NR02-62, 1-Methylcyclobutyl ((2R,6S,13aS,14aR,16aS,Z)-2-((7-methoxy-3-(trifluoromethyl)quinoxalin-2-yl)oxy)-14a-(((1-methylcyclopropyl)sulfonyl)carbamoyl)-5,16-dioxo-1,2,3,5,6,7,8,9,10,11,13a,14,14a,15,16,16a-hexadecahydrocyclopropa[e]pyrrolo[1,2-a][1,4]diazacyclopentadecin-6-yl)carbamate]	0.00486 ± 0.00039	0.0207 ± 0.0007	0.283 ± 0.021		
COc1ccc2nc(C(F)(F)F)c(O[C@@H]3C[C@H]4C(=O)N[C@]5(C(=O)NS(=O)(=O)C6(C)CC6)C[C@H]5/C=C\CCCCC[C@H](NC(=O)OCC5(C)CC5(F)F)C(=O)N4C3)nc2c1 (stereo partly drawn) [NR02-56, (2,2-Difluoro-1-methylcyclopropyl)methyl ((2R,6S,13aS,14aR,16aS,Z)-2-((7-methoxy-3-(trifluoromethyl)quinoxalin-2-yl)oxy)-14a-(((1-methylcyclopropyl)sulfonyl)carbamoyl)-5,16-dioxo-1,2,3,5,6,7,8,9,10,11,13a,14,14a,15,16,16a-hexadecahydrocyclopropa[e]pyrrolo[1,2-a][1,4]diazacyclopentadecin-6-yl)carbamate]	0.0021 ± 0.0005	0.0071 ± 0.0009	0.336 ± 0.047		
COc1ccc2nc(C(F)(F)F)c(O[C@@H]3C[C@H]4C(=O)N[C@]5(C(=O)NS(=O)(=O)C6(C)CC6)C[C@H]5/C=C\CCCCC[C@H](NC(=O)O[C@@H](C)C(F)(F)F)C(=O)N4C3)nc2c1 [NR02-32, (S)-1,1,1-Trifluoropropan-2-yl ((2R,6S,13aS,14aR,16aS,Z)-2-((7-methoxy-3-(trifluoromethyl)quinoxalin-2-yl)oxy)-14a-(((1-methylcyclopropyl)sulfonyl)carbamoyl)-5,16-dioxo-1,2,3,5,6,7,8,9,10,11,13a,14,14a,15,16,16a-hexadecahydrocyclopropa[e]pyrrolo[1,2-a][1,4]diazacyclopentadecin-6-yl)carbamate]	0.00769 ± 0.00089	0.0446 ± 0.0073	0.58 ± 0.05		
COc1ccc2nc(C)c(O[C@@H]3C[C@H]4C(=O)N[C@]5(C(=O)NS(=O)(=O)C6(C)CC6)C[C@H]5/C=C\CCCCC[C@H](NC(=O)OCC5(C)CC5(F)F)C(=O)N4C3)nc2c1 (stereo partly drawn) [NR02-55, (2,2-Difluoro-1-methylcyclopropyl)methyl ((2R,6S,13aS,14aR,16aS,Z)-2-((7-methoxy-3-methylquinoxalin-2-yl)oxy)-14a-(((1-methylcyclopropyl)sulfonyl)carbamoyl)-5,16-dioxo-1,2,3,5,6,7,8,9,10,11,13a,14,14a,15,16,16a-hexadecahydrocyclopropa[e]pyrrolo[1,2-a][1,4]diazacyclopentadecin-6-yl)carbamate]	0.0031 ± 0.0003	0.0047 ± 0.0005	0.1 ± 0.012		
COc1ccc2nc(C(F)(F)F)c(O[C@@H]3C[C@H]4C(=O)N[C@]5(C(=O)NS(=O)(=O)C6(C)CC6)C[C@H]5/C=C\CCCCC[C@H](NC(=O)OC5(C)CCCC5)C(=O)N4C3)nc2c1 [NR02-15, 1-Methylcyclopentyl ((2R,6S,13aS,14aR,16aS,Z)-2-((7-methoxy-3-(trifluoromethyl)quinoxalin-2-yl)oxy)-14a-(((1-methylcyclopropyl)sulfonyl)carbamoyl)-5,16-dioxo-1,2,3,5,6,7,8,9,10,11,13a,14,14a,15,16,16a-hexadecahydrocyclopropa[e]pyrrolo[1,2-a][1,4]diazacyclopentadecin-6-yl)carbamate]	0.0009 ± 0.0001	0.0118 ± 0.0018	0.161 ± 0.013		
COc1ccc2nc(C(F)(F)F)c(O[C@@H]3C[C@H]4C(=O)N[C@]5(C(=O)NS(=O)(=O)C6(C)CC6)C[C@H]5/C=C\CCCCC[C@H](NC(=O)O[C@@H](C)C(C)C)C(=O)N4C3)nc2c1 [NR01-101, (S)-3-Methylbutan-2-yl ((2R,6S,13aS,14aR,16aS,Z)-2-((7-methoxy-3-(trifluoromethyl)quinoxalin-2-yl)oxy)-14a-(((1-methylcyclopropyl)sulfonyl)carbamoyl)-5,16-dioxo-1,2,3,5,6,7,8,9,10,11,13a,14,14a,15,16,16a-hexadecahydrocyclopropa [e]pyrrolo[1,2-a][1,4]diazacyclopentadecin-6-yl)carbamate]	0.0061 ± 0.00057	0.0262 ± 0.0023	0.447 ± 0.025		
COc1ccc2nc(C(F)(F)F)c(O[C@@H]3C[C@H]4C(=O)N[C@]5(C(=O)NS(=O)(=O)C6(C)CC6)C[C@H]5/C=C\CCCCC[C@H](NC(=O)O[C@@H]5C[C@@H]6C[C@@H]6C5)C(=O)N4C3)nc2c1 [NR04-49, (1R,3R,5S)-Bicyclo[3.1.0]hexan-3-yl ((2R,6S,13aS,14aR,16aS,Z)-2-((7-methoxy-3-(trifluoromethyl)quinoxalin-2-yl)oxy)-14a-(((1-methylcyclopropyl)sulfonyl)carbamoyl)-5,16-dioxo-1,2,3,5,6,7,8,9,10,11,13a,14,14a,15,16,16a-hexadecahydrocyclopropa[e]pyrrolo[1,2-a][1,4]diazacyclopentadecin-6-yl)carbamate]			0.17 ± 0.013		
COC(=O)N[C@H](C(=O)N[C@H]1CCCCC/C=C\[C@@H]2C[C@@]2(C(=O)NS(=O)(=O)C2(C)CC2)NC(=O)[C@@H]2C[C@@H](Oc3nc4cc(OC)ccc4nc3C)CN2C1=O)C(C)(C)C [Inhibitor P4P5-2B, Methyl ((S)-1-(((2R,6S,13aS,14aR,16aS,Z)-2-((7-methoxy-3-methylquinoxalin-2-yl)oxy)-14a-(((1-methylcyclopropyl)sulfonyl)carbamoyl)-5,16-dioxo-1,2,3,5,6,7,8,9,10,11,13a,14,14a,15,16,16a-hexadecahydrocyclopropa[e]pyrrolo[1,2-a][1,4]diazacyclopentadecin-6-yl)amino)-3,3-dimethyl-1-oxobutan-2-yl)carbamate]	0.0295 ± 0.0019	0.201 ± 0.015		(8) fold	
COc1ccc2nc(C)c(O[C@@H]3C[C@H]4C(=O)N[C@]5(C(=O)NS(=O)(=O)C6(C)CC6)C[C@H]5/C=C\CCCCC[C@H](NC(=O)OC5(C)CCC5)C(=O)N4C3)nc2c1 [NR02-61, 1-Methylcyclobutyl ((2R,6S,13aS,14aR,16aS,Z)-2-((7-methoxy-3-methylquinoxalin-2-yl)oxy)-14a-(((1-methylcyclopropyl)sulfonyl)carbamoyl)-5,16-dioxo-1,2,3,5,6,7,8,9,10,11,13a,14,14a,15,16,16a-hexadecahydrocyclopropa[e]pyrrolo [1,2-a][1,4]diazacyclopentadecin-6-yl)carbamate]	0.0014 ± 0.00013	0.0464 ± 0.0034		(33) fold	4
